Measurements reported in BigSolDB 2.1.

Nc1cccc2c1CN(C1CCC(=O)NC1=O)C2=O (stereo not given)
solubility (mole fraction)
Settings	293.15 K	298.15 K	303.15 K	308.15 K	313.15 K	318.15 K	323.15 K	328.15 K	333.15 K
in acetonitrile	0.000539	0.000549	0.000561	0.000573	0.000588	0.000603	0.000618	0.000634	0.000652
in ethanol	0.000164	0.000183	0.000209	0.000238	0.00027	0.000309	0.000357	0.000404	0.00046
in ethyl acetate	0.000127	0.000144	0.000164	0.000184	0.00021	0.000239	0.000277	0.000319	0.000367
in isopropanol	6.37e-05	7.79e-05	9.5e-05	0.000116	0.000141	0.000168	0.000195	0.000231	0.000271
in methanol	0.000252	0.000269	0.000288	0.000309	0.000332	0.000359	0.000394	0.000434	0.00048
